C=C[C@]1(C)C[C@@H](OC(=O)CSC(C)(C)CNC(=O)[C@H](N)C(C)C)[C@]2(C)[C@H](C)CC[C@]3(CCC(=O)[C@H]32)[C@@H](C)[C@@H]1O.Cl
solubility (mole fraction)
Details	278.15 K	283.15 K	288.15 K	293.15 K	298.15 K	303.15 K	308.15 K	313.15 K
in ethanol	0.0309	0.038	0.0432	0.0506	0.0601	0.0713	0.0837	0.101
in water	0.00162	0.00321	0.00545	0.00853	0.0135	0.0214	0.0344	0.0486
